Results on 13 molecules are retold here after ChEMBL document CHEMBL1125504, “2-Substituted 1-azabicycloalkanes, a new class of non-opiate antinociceptive agents” (J Med Chem, 1992).

The test system of test [1] is Mus musculus. Kind of test: Antinociceptive activity (100 mg/Kg) was determined using mouse tail flick test. The test is classed as functional.
The species entered for test [2] is Mus musculus. Kind of test: Antinociceptive activity using mouse abdominal constriction test; inactive. The format is functional, organism-based. Particulars: Abdomen.
Test [3] has as its system Mus musculus. Kind of test: Antinociceptive activity (10 mg/Kg) was determined using mouse abdominal constriction test. The test is classed as functional, Abdomen.
In test [4] the test system is Mus musculus. Description: Antinociceptive activity (50 mg/Kg) was determined using mouse tail flick test. The test is classed as functional. Background: Hot-plate and tail-flick tests time the reaction to a heat stimulus.
The species entered for test [5] is Mus musculus. Kind of test: Antinociceptive activity in mice, determined using abdominal constriction test. The settings on record: Abdomen. The format is functional.
The species named for test [6] is Mus musculus. Kind of test: Antinociceptive activity using mouse tail flick test; Inactive. The format is functional, organism-based.
Test [7] deals with Mus musculus. Description: Antinociceptive activity in mice following i.p. treatment, determined using tail flick test. The format is functional. The settings on record: ip.
Test [8] deals with T1, Adrenergic receptor alpha-2 (Rattus norvegicus, UniProt P22086+P19328+P22909).
T1 sequence (P22086 whole entry): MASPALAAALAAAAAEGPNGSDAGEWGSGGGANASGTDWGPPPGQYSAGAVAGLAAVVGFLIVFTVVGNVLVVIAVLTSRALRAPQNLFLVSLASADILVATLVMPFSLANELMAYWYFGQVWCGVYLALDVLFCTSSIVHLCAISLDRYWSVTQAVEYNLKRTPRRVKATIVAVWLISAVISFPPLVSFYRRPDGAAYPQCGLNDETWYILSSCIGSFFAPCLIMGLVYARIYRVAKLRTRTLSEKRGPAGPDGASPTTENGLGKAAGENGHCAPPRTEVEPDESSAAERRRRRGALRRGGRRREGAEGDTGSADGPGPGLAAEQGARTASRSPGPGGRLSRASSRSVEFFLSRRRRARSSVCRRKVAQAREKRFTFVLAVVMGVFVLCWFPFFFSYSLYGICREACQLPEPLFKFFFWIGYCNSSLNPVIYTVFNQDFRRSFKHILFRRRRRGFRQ
T1 sequence (P19328 whole entry): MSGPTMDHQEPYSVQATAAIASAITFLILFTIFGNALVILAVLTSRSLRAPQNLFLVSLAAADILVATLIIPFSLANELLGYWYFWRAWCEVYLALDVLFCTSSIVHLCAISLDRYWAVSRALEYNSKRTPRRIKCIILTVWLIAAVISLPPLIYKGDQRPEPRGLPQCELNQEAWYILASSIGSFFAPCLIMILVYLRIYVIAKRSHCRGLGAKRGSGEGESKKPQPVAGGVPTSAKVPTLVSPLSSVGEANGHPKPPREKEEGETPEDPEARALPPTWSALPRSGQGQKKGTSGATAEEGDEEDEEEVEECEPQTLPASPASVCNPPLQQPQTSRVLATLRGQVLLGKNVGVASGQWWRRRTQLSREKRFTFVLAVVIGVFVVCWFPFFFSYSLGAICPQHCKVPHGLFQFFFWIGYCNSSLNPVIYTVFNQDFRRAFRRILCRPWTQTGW
T1 sequence (P22909 whole entry): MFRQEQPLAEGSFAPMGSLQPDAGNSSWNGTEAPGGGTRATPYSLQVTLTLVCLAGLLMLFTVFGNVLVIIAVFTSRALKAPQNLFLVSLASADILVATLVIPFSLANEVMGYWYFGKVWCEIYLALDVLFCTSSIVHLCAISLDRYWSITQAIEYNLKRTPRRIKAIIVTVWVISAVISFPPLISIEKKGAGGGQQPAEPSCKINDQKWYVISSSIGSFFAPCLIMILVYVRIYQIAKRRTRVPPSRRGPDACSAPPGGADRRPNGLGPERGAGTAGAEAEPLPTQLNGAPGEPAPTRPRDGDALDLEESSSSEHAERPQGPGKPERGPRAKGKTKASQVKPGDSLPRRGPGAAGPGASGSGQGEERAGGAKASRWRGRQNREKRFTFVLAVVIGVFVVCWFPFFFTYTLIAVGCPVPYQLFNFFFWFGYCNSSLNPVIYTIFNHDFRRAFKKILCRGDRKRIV
Kind of test: Inhibitory constant was measured on alpha-2 adrenergic receptor /uptake using [3H] clonidine as radioligand in rat brain cortex. The format is tissue-based.

The target in test [9] is Adrenergic receptor alpha-1 (Rattus norvegicus) (UniProt P15823+P23944+P43140). Kind of test: Inhibitory constant (1 uM) was measured on alpha-1 adrenergic receptor/uptake using [3H]- WB-4101 as radioligand in rat brain cortex. The format is tissue-based.
Test [10] concerns the target GABA-A receptor; anion channel (Rattus norvegicus) (UniProt O09028+P15431+P18506+P18508+P19969+P20236+P23574+P23576+P28471+P28473+P30191+P62813+P63079+P63138+Q91ZM7+Q9ES14). Description: Inhibition of [3H]GABA binding to gamma-aminobutyric-acid A (GABA-A) receptor of rat brain cerebellum at 10 uM. The format is tissue-based.
In test [11] the target is Opioid receptor (Rattus norvegicus) (UniProt P33533+P34975+P33535). Kind of test: Inhibitory constant (10 uM) was measured on opioid receptor/uptake using [3H]- naloxone as radioligand in rat whole brain.
Sequence of Opioid receptor (Rattus norvegicus) (P33533 whole entry, looked up): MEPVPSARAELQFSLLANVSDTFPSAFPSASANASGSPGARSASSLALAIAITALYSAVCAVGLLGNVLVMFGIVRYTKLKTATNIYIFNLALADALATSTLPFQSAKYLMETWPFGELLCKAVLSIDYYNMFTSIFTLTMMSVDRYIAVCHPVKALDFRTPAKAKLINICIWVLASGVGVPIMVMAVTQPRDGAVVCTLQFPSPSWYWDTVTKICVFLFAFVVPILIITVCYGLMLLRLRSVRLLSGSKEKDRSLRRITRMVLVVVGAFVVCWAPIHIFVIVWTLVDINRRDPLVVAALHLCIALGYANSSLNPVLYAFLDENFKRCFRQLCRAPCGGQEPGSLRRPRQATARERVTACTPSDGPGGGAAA
Sequence of Opioid receptor (Rattus norvegicus) (P33535 whole entry, looked up): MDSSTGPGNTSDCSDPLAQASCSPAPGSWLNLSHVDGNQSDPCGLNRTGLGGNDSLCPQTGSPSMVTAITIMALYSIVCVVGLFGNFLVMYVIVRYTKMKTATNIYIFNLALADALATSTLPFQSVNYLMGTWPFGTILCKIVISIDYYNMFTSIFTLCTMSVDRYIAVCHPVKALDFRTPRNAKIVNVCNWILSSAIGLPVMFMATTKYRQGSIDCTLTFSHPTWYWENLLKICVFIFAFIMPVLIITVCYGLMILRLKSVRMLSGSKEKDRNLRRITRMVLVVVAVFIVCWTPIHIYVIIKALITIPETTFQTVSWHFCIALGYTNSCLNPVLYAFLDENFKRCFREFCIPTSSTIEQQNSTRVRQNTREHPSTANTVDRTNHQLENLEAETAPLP
Sequence of Opioid receptor (Rattus norvegicus) (P34975 whole entry, looked up): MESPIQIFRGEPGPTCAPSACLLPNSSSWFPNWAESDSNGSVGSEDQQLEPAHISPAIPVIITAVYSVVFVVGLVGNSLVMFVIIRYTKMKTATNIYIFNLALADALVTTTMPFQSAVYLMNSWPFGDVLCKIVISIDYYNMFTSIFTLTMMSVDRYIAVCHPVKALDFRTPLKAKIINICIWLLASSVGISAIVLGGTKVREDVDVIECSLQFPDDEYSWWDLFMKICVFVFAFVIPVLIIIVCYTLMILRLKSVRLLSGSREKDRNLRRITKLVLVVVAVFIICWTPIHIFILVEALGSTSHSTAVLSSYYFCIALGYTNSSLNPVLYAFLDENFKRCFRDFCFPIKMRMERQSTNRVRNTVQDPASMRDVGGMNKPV
Test [12] has as its target D(2) dopamine receptor (Rattus norvegicus) (UniProt P61169). Description: Inhibitory constant (1 uM) was measured on dopamine receptor D2 using [3H]- spiperone as radioligand in rat brain striatum. The format is tissue-based.
For test [13], the target named is Adrenergic receptor beta (Rattus norvegicus) (UniProt P18090+P10608+P26255). Kind of test: Inhibitory constant (1 uM) was measured on beta adrenergic receptor/uptake using [3H]- dihydroalprenolol as radioligand in rat brain cortex. The test is classed as tissue-based.
For test [14], the target named is Serotonin 2 (5-HT2) receptor (Rattus norvegicus) (UniProt P30994+P08909+P14842). Kind of test: Inhibitory constant (1 uM) was measured on 5-hydroxytryptamine 2 receptor/uptake using [3H]- ketanserin as radioligand in rat brain cortex. The test is classed as tissue-based.
Sequence of Serotonin 2 (5-HT2) receptor (Rattus norvegicus) (P08909 whole entry, looked up): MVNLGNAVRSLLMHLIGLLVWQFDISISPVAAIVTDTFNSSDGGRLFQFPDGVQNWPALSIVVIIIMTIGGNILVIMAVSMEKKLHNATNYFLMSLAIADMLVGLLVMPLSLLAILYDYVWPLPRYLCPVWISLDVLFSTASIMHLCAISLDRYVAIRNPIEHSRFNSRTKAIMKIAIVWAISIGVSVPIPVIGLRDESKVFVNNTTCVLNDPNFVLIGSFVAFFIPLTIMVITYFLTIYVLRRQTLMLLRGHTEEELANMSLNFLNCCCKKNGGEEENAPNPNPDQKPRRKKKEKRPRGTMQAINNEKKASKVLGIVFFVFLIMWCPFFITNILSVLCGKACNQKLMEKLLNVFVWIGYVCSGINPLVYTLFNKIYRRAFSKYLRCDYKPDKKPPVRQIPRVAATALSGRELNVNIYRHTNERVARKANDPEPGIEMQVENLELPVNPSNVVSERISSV
Sequence of Serotonin 2 (5-HT2) receptor (Rattus norvegicus) (P14842 whole entry, looked up): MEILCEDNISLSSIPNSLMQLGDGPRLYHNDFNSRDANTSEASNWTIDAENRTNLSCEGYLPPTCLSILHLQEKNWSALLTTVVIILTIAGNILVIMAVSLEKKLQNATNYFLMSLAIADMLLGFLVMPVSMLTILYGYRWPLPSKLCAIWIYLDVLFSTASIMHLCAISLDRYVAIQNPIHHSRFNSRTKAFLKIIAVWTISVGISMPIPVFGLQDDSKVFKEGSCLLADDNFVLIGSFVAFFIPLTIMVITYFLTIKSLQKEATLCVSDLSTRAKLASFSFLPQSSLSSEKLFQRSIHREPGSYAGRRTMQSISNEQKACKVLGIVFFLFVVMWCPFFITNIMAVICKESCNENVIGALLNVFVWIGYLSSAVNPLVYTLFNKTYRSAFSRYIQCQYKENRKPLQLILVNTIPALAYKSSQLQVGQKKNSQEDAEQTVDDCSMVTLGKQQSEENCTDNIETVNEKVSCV
Sequence of Serotonin 2 (5-HT2) receptor (Rattus norvegicus) (P30994 whole entry, looked up): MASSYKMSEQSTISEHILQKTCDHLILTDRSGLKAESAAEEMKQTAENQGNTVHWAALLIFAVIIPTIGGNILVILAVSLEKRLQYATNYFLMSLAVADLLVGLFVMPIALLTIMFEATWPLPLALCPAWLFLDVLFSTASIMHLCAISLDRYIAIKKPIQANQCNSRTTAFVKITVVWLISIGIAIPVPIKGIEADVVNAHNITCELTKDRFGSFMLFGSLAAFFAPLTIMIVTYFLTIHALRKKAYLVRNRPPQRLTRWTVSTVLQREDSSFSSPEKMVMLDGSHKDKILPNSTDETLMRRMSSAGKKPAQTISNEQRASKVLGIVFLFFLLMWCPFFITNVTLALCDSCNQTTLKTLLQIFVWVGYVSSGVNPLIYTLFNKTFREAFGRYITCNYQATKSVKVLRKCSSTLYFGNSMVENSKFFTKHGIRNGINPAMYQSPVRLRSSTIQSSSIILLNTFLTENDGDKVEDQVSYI
Test [15] has as its target Serotonin 1 (5-HT1) receptor (Rattus norvegicus) (UniProt P28564+P30940+P19327+P28565). Kind of test: Inhibition constant (1 uM) was measured on 5-hydroxytryptamine 1 receptor/uptake using [3H]- serotonin as radioligand in rat brain cortex. The test is classed as tissue-based.
The target of test [16] is Cannabinoid receptor (Rattus norvegicus) (UniProt Q9QZN9+P20272). Description: Inhibitory constant (10 uM) was measured on cannabinoid receptor/uptake using [3H]CP-55940 as radioligand in rat brain cortex. The test is classed as tissue-based.
Sequence of Cannabinoid receptor (Rattus norvegicus) (P20272 whole entry, looked up): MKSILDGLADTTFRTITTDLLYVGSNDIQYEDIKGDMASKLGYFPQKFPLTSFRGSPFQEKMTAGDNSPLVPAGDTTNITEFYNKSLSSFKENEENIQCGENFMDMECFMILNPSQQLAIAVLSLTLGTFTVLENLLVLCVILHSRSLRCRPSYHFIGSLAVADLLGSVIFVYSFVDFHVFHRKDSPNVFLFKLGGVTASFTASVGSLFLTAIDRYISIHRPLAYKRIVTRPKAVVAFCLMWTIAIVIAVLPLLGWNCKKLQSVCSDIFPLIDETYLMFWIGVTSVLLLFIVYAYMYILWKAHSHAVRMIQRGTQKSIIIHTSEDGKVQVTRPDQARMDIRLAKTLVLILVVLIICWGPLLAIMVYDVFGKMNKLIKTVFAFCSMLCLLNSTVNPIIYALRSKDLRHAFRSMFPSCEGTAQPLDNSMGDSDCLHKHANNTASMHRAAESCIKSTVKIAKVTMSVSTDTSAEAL
Sequence of Cannabinoid receptor (Rattus norvegicus) (Q9QZN9 whole entry, looked up): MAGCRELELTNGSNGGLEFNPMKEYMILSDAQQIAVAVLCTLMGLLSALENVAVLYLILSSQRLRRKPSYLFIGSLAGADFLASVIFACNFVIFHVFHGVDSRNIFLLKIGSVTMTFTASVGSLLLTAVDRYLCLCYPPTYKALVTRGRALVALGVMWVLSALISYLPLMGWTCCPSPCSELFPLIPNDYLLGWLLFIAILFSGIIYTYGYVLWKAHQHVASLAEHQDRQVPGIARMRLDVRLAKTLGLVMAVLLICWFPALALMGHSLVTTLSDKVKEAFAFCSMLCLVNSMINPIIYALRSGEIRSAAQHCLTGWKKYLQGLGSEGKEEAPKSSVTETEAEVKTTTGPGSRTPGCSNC
Test [17] has as its target T1, Adrenergic receptor alpha-2. Description: Inhibitory constant was measured on alpha-2 adrenergic receptor /uptake using [3H]- clonidine as radioligand in rat brain cortex. The format is tissue-based.

The source made the active and inactive calls. No cut-off for these calls is given here.

Sequence of D(2) dopamine receptor (Rattus norvegicus) (P61169 whole entry): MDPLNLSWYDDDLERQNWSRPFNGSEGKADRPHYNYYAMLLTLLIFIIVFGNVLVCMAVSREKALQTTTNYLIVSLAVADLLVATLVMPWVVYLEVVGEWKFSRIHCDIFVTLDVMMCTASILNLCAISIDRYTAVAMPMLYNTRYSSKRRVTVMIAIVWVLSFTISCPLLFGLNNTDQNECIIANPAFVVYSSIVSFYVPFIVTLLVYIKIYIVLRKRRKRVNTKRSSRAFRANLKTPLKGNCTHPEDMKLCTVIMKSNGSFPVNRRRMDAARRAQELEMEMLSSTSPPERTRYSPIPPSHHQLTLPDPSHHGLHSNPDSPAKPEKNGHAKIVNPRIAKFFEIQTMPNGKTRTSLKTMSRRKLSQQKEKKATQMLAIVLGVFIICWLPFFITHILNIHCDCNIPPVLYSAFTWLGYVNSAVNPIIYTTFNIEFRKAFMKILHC

For the molecule `Brc1cccc([C@H]2CC[C@H]3CCCCN32)c1.Cl`, the Response in test [1] is on record as 60%. Besides, the ED50 entry in test [2] was “inactive”.
On to `C1CCC([C@H]2CC[C@H]3CCCCN32)CC1.Cl`, for which the Response in test [3] amounted to 50%; in test [4], 60%.
`Cl.c1ccc(COc2ccc([C@H]3CC[C@H]4CCCCN43)cc2)cc1` returned an ED50 in test [5] of 16.8 mg/kg. The Response in test [1] is on record as 50%.
`Brc1ccc([C@H]2CC[C@H]3CCCCN32)cc1.Cl`: the ED50 in test [5] was found to be 18.8 mg/kg. Besides, the ED50 result in test [6] is “inactive”.
Turning to `c1ccc(C2CCC3CCCN32)cc1` (stereo unspecified), the ED50 in [5] is 5.7 mg/kg; in [7], more than 25 mg/kg.
The molecule `Brc1ccccc1[C@H]1CC[C@H]2CCCCN21.Cl` (racemic) displayed a Ki in [8] of 1.12 µM.
On to `Brc1ccccc1[C@H]1CC[C@H]2CCCCN21` (racemic), for which the Response in test [9] is 6%; in [10], 2%; in test [11], 17%; in test [12], 0%; in test [13], -3%; in test [14], -18%. Further, the Response in [15] was found to be 7%; in test [16] it was 1%.
In test [17], `Brc1ccccc1[C@H]1CC[C@H]2CCCCN21.Cl` (stereo in doubt; (+)2a) displayed a Ki of 1.2 µM.
Turning to `Brc1ccccc1[C@H]1CC[C@H]2CCCCN21` (stereo in doubt; (+)2a), the Response in test [10] was 4%; in test [13], -1%; in [16], 6%.
Molecule `Brc1ccccc1[C@H]1CC[C@H]2CCCCN21.Cl` (stereo in doubt; (-)2a) registered a Ki in [17] of 2.84 µM. This lies in the single-digit micromolar range.
As to `Brc1ccccc1[C@H]1CC[C@H]2CCCCN21` (stereo in doubt; (-)2a), the Response was -2% in test [10], -5% in test [13] and 2% in test [16].
With `COc1ccc2c3c1O[C@H]1[C@@H](O)C=C[C@H]4[C@@H](C2)N(C)CC[C@@]341.COc1ccc2c3c1O[C@H]1[C@@H](O)C=C[C@H]4[C@@H](C2)N(C)CC[C@@]341.O.O=P(O)(O)O.O=P(O)(O)O` [CODEINE PHOSPHATE], the ED50 is 11.1 mg/kg in [5] and 30 mg/kg in test [7].
In turn, `CC(C)Cc1ccc(C(C)C(=O)O)cc1` (stereo unspecified) [IBUPROFEN] yielded an ED50 in test [5] of 15.7 mg/kg. Further, the ED50 entry in [6] is “inactive”.

In general, ED50 refers to the dose that gives a 50% effect, or the effect in half of the subjects. As usually defined, the Ki is a measure of affinity in units of concentration, obtained from inhibition or displacement. Read a high Ki as lower affinity.
